Measurements published in patent US20230227492A1 (priority 2020, published 2023).
Read-outs that look alike come from different tables or passages of the source.

Experiments:
[1] = biological target: T1, full-length, untagged, human estrogen receptors (ERα) (Homo sapiens, UniProt P03372); test: ERα fluorescence polarization (FP) binding assay
T1 construct: insect cell-expressed, full-length, untagged, human estrogen receptors; purchased Life Technologies (Carlsbad, Calif.); host or cells: insect cells
T1 sequence (P03372 whole entry): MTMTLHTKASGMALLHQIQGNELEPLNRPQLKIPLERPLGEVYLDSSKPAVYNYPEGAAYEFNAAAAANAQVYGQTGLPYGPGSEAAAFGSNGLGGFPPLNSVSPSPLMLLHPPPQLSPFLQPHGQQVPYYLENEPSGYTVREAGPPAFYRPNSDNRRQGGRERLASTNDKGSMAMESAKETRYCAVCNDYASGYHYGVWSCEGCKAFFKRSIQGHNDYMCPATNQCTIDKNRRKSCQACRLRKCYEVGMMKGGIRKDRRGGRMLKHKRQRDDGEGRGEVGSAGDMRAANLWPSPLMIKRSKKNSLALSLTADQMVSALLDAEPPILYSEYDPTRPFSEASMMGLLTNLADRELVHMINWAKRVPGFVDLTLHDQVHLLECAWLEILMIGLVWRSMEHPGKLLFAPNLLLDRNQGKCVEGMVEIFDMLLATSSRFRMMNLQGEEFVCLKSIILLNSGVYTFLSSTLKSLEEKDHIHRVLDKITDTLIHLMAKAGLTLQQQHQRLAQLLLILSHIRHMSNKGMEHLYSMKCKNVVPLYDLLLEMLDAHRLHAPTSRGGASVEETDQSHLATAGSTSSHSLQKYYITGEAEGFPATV
Description: (§1) Receptor Binding Assay Information—In certain of the following examples, hormone receptor binding assays were used to determine the receptor binding activities of monomeric compound embodiments to androgen (AR), progesterone (PR), estrogen alpha (ERα) or glucocorticoid (GR) receptors. For AR, PR or ERα, the respective receptors are added to novel, tight-binding, selective ligands tagged with a fluorescent molecule, to form a receptor-ligand complex with a high polarization value. This complex is then added to individual monomeric compound embodiments that are contained in well plates. If the monomeric compound binds to the respective receptors, it displaces the fluorescent ligand from the complex, resulting in a low polarization value. In such embodiments, the monomeric compound is characterized as a competitor. […] In such embodiments, the monomeric compound is characterized as a noncompetitor. The shift in polarization value in the presence of the monomeric compound is used to determine the relative affinity of monomeric compound for the receptor.
(§2) For the androgen, progesterone, and estrogen receptor binding assays described herein, the preparation of reagents and test procedures is performed according to the manufacturer's instructions (Life Technologies, Carlsbad, Calif.). The plates are covered to protect the reagents from light and incubated at 20-25° C. for 4-8 hrs.
For ERα data, the ERα fluorescence polarization (FP) assay was used, which provides a sensitive and efficient method for high-throughput screening of potential ER ligands. The kit uses insect cell-expressed, full-length, untagged, human estrogen receptors and a tight-binding, fluorescent estrogen ligand (Fluormone™ ES2) in a homogenous mix-and-read assay format. ERα was added to a fluorescent estrogen ligand to form an ERα/Fluormone™ ES2 complex. This complex was then added to individual compound embodiments contained in 96-well plates. […] The change in polarization value in the presence of a compound embodiment was used to determine relative affinity of a compound embodiment for ERα.

[2] = biological target: T2, human full-length androgen receptor (Homo sapiens, UniProt P10275); test: AR Transactivation Assay (MMTV-luciferase, HEC-1-B cells); assay type: cell-based
T2 sequence (P10275 1-920): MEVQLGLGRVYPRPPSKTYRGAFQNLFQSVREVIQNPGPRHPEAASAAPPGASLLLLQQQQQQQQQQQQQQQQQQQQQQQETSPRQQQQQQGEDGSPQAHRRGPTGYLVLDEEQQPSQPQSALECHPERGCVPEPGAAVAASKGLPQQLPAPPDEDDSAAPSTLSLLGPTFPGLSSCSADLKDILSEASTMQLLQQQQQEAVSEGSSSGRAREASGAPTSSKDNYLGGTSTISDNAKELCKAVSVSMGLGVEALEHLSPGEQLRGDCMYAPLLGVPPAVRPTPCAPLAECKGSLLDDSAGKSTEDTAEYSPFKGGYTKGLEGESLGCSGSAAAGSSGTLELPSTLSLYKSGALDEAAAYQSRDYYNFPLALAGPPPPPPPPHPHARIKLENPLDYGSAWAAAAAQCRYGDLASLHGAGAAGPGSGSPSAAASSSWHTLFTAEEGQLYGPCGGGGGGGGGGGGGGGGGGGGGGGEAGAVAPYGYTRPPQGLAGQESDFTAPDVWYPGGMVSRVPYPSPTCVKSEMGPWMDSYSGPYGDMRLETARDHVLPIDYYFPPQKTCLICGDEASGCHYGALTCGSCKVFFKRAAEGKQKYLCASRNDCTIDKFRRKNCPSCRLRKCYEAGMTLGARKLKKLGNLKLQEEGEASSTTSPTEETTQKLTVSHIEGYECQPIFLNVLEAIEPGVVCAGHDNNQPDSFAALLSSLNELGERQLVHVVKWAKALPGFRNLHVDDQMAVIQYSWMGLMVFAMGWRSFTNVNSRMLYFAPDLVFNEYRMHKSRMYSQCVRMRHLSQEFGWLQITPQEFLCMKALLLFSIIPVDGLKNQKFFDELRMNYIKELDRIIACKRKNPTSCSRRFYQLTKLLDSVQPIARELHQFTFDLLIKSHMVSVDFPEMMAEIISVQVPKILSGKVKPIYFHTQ

[3] = biological target: T3, human PR ligand-binding domain tagged with GST [PR-LBD (GST)] (Homo sapiens, UniProt P06401); test: PR fluorescence polarization (FP) binding assay; settings: Fluormone PL Green
T3 construct: purchased Life Technologies (Carlsbad, Calif.)
T3 sequence (P06401 679-913 limits assumed): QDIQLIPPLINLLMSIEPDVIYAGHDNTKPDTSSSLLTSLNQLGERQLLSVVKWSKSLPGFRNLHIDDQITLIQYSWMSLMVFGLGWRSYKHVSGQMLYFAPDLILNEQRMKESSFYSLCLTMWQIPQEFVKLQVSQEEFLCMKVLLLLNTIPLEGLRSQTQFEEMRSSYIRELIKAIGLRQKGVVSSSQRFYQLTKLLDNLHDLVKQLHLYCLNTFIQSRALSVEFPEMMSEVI
Description: as §1
as §2, with “hrs. The fluorescence polarization of the samples is measured with 485 nm excitation and 530 nm emission interference filters.” for “hrs.”
In this example, PR binding activity was assessed using the PR fluorescence polarization (FP) assay, which provides a sensitive and efficient method for high-throughput screening of potential PR ligands. The kit uses human PR ligand-binding domain tagged with GST [PR-LBD (GST)], and a tight-binding, selective fluorescent progesterone ligand (Fluormone™ PL Green) in a homogenous mix-and-read assay format. Progesterone receptor [PR-LBD (GST)] was added to a fluorescent progesterone ligand (Fluormone™ PL Green) to form a PR-LBD (GST)/Fluormone™ PL Green complex resulting in a high polarization value. This complex was then added to individual compound embodiments in 96-well plates. Competitors displaced the fluorescent Fluormone™ PL Green ligand from the PR-LBD (GST)/Fluormone™ PL Green complex, causing the fluorescent ligand to tumble rapidly during its fluorescence lifetime, resulting in a low polarization value. […] The shift in polarization value in the presence of compound embodiments was used to determine relative affinity of compound embodiments for PR-LBD (GST). The fluorescence polarization of the samples was measured with 485 nm excitation and 530 nm emission interference filters. Results for monomeric compound embodiments wherein the R^2 groups is not present (such as to test compound activity after R^2 cleavage) are provided in Table 4.

[4] = biological target: T4, rat AR ligand-binding domain tagged with His and GST [AR-LBD (His-GST)] (Rattus norvegicus, UniProt P15207); test: AR fluorescence polarization (FP) binding assay; settings: Fluormone AL Green
T4 construct: purchased Life Technologies (Carlsbad, Calif.)
T4 sequence (P15207 651-882 limits assumed): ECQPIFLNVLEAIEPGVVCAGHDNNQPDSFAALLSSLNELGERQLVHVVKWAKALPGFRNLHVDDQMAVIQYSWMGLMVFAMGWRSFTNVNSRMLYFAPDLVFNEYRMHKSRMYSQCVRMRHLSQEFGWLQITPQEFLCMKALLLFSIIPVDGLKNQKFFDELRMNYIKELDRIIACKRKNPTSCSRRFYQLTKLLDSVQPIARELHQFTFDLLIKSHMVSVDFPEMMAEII
Description: as §1, §2
In this example, AR binding activity and ER binding activity of certain reference compounds and monomeric compound embodiments wherein the R^2 group is not present was assessed (such as to test compound activity after R^2 cleavage). The AR fluorescence polarization (FP) assay was used and provides a sensitive and efficient method for high-throughput screening of potential AR ligands. The kit uses rat AR ligand-binding domain tagged with His and GST [AR-LBD (His-GST)], and a tight-binding, selective fluorescent androgen ligand (Fluormone™ AL Green) in a homogenous mix-and-read assay format. The androgen receptor [AR-LBD (His-GST)] was added to a fluorescent androgen ligand (Fluormone™ AL Green) to form an AR-LBD (His-GST)/Fluormone™ AL Green complex resulting in a high polarization value. This complex was then added to individual compound embodiments in 96-well plates. Competitors displaced the fluorescent Fluormone™ AL Green ligand from the AR-LBD (His-GST)/Fluormone™ AL Green complex, causing the fluorescent ligand to tumble rapidly during its fluorescence lifetime, resulting in a low polarization value. […] The shift in polarization value in the presence of compound embodiments used to determine relative affinity of compound embodiments for AR-LBD (His-GST).

[5] = human, plasma
castrated weanling rats = settings: rat, in vivo
[6] = biological target: T5, recombinant human aromatase (Homo sapiens, UniProt P11511); test: Aromatization by recombinant human aromatase (CYP19+P450 reductase Supersomes); settings: 10 μM, 37° C.
T5 sequence (P11511 1-503): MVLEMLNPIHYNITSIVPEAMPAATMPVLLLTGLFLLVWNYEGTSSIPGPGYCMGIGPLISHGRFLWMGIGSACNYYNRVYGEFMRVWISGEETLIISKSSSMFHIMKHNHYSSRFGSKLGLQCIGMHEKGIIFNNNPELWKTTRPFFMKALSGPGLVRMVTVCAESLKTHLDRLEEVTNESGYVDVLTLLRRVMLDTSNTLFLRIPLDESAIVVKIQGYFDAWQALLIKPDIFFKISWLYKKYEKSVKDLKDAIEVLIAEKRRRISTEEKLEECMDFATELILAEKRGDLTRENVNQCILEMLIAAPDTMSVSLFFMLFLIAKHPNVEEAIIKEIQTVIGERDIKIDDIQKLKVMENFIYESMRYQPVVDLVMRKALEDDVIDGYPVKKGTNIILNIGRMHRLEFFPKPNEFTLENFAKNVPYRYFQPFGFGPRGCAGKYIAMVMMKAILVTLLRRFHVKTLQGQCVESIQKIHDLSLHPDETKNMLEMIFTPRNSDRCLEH

[7] = system: castrated Sprague-Dawley male rats; test: Hershberger assay, ventral prostate weights (7α-methyl testosterone); assay type: in vivo, rat
[8] = fluorescence polarization, Fluormone ES2, read-out: IC50 (nM) ERα

SMILES | IC50 [1, 8] [nM] | IC50 ([3]; read-out: IC50 (nM) PR binding) [nM] | IC50 (nM) AR [4] [nM] | % remaining at 15 min [6] [%] | % remaining at 30 min [6] [%] | % remaining at 60 min [6] [%] | further results
CC1Cc2cc(O)ccc2C2CCC3(C)C(O)CCC3C12 (stereo not drawn) [CDB 4915, 7α-methyl estradiol] | 10.3 | 502 | 20.1 | – | – | – | EC50 [2]: 39 nM
CC1CC2(C)C(O)CCC2C2C(C)Cc3cc(O)ccc3C12 (stereo not drawn) [CDB 4916, 7α, 11β-dimethyl estradiol] | 13.8 | 165 | 17.8 | – | – | – | EC50 [2]: 3.68 nM
CC1CC2(C)C(O)CCC2C2CCc3cc(O)ccc3C12 (stereo not drawn) [CDB 4917, 11β-methyl estradiol] | 12 | 120 | 12.8 | – | – | – | –
C[C@@H]1CC2=CC(=O)CC[C@@H]2[C@H]2CC[C@]3(C)[C@@H](O)CC[C@H]3[C@@H]21 [CDB-902, 7-α-methylnortestosterone, reference compound] | – | – | – | – | – | – | Parent molecule % remaining after 24 hours at 37° C. [5]: 100≤ %
C[C@@H]1CC2=CC(=O)CCC2C2C1C1CC[C@H](OC(=O)CCCCCCCCCCC(=O)O[C@H]3CCC4C5C(C6CCC(=O)C=C6C[C@H]5C)[C@@H](C)C[C@@]43C)[C@@]1(C)C[C@@H]2C (stereo partly drawn) [CDB-4867] | – | – | – | – | – | – | Parent molecule % remaining after 24 hours at 37° C. ([5]; male): 100≤ %; AUC (Levator ani muscle) (castrated weanling rats): 5059 mg*week; AUC (Ventral Prostate) (castrated weanling rats): 529.5 mg*week; duration of levator ani muscle weight increase (anabolic effects) (castrated weanling rats): sustained until Day 99 (Week 14); duration of ventral prostate weight increase (androgenic effects) (castrated weanling rats): sustained until Day 99 (Week 14); ventral prostate gland weights relative to vehicle (castrated weanling rats): increased
CC1CC2(C)C(O)CCC2C2CCC3=CC(=O)CCC3=C12 (stereo not drawn) [CDB-4890, 11β, 4,9 diene-MNT] | 6680 | 43.5 | 15.5 | – | – | – | –
C[C@@H]1CC2=CC(=O)CC[C@]2(C)C2CC[C@@]3(C)C(CC[C@@H]3O)C21 (stereo partly drawn) [CDB-4910, 7α-methyl testosterone] | – | – | – | 57.6 | 20.2 | 0.1 | IC50 [1]: 7830 nM; IC50 ([3]; IC50 (nM) PR binding): 395 nM; Ventral Prostate (weight in gram) ([7]; Conc. in mmole 0.7): 0.076 gram; Ventral Prostate (weight in gram) ([7]; Conc. in mmole 2.8): 0.13 gram; Ventral Prostate (weight in gram) ([7]; Conc. in mmole 11.2): 0.14 gram
C[C@@H]1CC2CC(=O)CC[C@]2(C)C2CC[C@@]3(C)C(CC[C@@H]3O)C21 (stereo partly drawn) [CDB-4922, 7α-methyldihydro testosterone] | – | – | 57.1 | 66.8 | 38.0 | 10.1 | IC50 [1]: 26300 nM; IC50 ([3]; IC50 (nM) PR binding): 1890 nM
C[C@]12CC[C@H]3[C@@H](CCC4=CC(=O)CC[C@@]43C)[C@@H]1CC[C@@H]2O [Testosterone, reference compound] | – | – | – | 31.4 | 0.1 | 0.1 | Ventral Prostate (weight in gram) ([7]; Conc. in mmole 6.9): 0.12 gram
